pEC50: −log10 of the molar value. Like-named read-outs stand apart in the source and are kept apart here. Each block holds one molecule with its values, some of them ahead of it.
Experiments:
[1] = target: T1, CFTR-mediated chloride transport in human intestinal epithelial enteroid cells (Homo sapiens, UniProt P13569); assay: Membrane potential dye, Enteroid Assay B; assay type: cell-based; details: for Ent. B Max Activity: % of chloride transport of triple combination control: 1 μM (14S)-8-[3-(2-{Dispiro[2.0.2.1]heptan-7-yl}ethoxy)-1H-pyrazol-1-yl]-12,12-dimethyl-...-2,2,4-trione, 3 μM tezacaftor, 300 nM acute ivacaftor; for pEC50: enteroid cells, 18-24 hours incubation, acute 10 μM forskolin and 300 nM ivacaftor, read-out: Ent. B EC50
T1 sequence (P13569 with tags, fused parts or gaps DEL508-508): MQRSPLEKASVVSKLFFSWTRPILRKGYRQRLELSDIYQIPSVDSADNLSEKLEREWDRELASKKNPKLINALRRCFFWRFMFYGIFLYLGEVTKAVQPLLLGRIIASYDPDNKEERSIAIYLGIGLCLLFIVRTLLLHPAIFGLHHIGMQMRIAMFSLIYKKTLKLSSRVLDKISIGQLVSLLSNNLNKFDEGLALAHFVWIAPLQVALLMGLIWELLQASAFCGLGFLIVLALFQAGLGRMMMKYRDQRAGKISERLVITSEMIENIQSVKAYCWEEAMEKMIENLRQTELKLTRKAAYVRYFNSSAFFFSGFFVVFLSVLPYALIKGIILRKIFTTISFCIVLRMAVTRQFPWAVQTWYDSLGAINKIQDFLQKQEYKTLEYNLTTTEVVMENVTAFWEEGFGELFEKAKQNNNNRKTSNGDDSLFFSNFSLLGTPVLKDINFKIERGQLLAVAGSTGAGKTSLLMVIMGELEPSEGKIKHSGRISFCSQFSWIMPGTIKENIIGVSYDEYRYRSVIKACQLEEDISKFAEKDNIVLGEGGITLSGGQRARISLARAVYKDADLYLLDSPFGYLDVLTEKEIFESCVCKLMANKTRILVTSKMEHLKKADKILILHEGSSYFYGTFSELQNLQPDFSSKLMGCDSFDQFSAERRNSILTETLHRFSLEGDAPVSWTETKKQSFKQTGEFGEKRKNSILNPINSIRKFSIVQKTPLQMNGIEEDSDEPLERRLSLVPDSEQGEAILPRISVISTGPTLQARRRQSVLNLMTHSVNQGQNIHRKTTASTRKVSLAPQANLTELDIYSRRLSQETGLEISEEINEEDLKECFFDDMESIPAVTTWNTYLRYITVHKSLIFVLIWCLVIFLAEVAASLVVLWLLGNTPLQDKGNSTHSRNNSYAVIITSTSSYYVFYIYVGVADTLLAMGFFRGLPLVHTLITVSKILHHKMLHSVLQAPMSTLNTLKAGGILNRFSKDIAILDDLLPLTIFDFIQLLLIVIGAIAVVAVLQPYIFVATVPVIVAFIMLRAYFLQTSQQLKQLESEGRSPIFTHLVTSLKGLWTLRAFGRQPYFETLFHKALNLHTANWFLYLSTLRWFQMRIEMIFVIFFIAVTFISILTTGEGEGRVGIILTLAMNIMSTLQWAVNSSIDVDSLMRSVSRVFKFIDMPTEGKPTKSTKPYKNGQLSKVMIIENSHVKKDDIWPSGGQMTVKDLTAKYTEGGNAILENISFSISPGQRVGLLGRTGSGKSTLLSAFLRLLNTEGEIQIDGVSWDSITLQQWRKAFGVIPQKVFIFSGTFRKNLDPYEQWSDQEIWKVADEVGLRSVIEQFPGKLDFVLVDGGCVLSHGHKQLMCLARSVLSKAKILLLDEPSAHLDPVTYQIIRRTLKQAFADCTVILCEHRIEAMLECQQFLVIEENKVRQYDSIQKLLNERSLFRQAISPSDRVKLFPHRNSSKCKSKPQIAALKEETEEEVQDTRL
Protocol: (§1) Base medium (ADF+++) consisted of Advanced DMEM/Ham's F12, 2 mM Glutamax, 10 mM HEPES, […] penicillin/streptomycin.
(§2) Intestinal enteroid maintenance medium (IEMM) consisted of ADF+++, 1×B27 supplement, 1×N2 supplement, 1.25 mM N-acetyl cysteine, 10 mM Nicotinamide, 50 ng/mL hEGF, 10 nM Gastrin, 1 μg/mL hR-spondin-1, 100 ng/mL hNoggin, TGF-b type 1 inhibitor A-83-01, 100 μg/mL Primocin, 10 μM P38 MAPK inhibitor SB202190.
(§3) Bath 1 Buffer consisted of 1 mM MgCl2, 160 mM NaCl, 4.5 mM KCl, 10 mM HEPES, 10 mM Glucose, 2 mM CaCl2).
(§4) Chloride Free Buffer consisted of 1 mM Magnesium Gluconate, 2 mM Calcium Gluconate, 4.5 mM Potassium Gluconate, 160 mM Sodium Gluconate, 10 mM HEPES, 10 mM Glucose.
(§5) BathI Dye Solution consisted of Bath 1 Buffer, 0.04% Pluronic F127, 20 μM Methyl Oxonol, 30 μM CaCCinh-A01, 30 μM Chicago Sky Blue.
(§6) Chloride Free Dye Solution consisted of Chloride Free Buffer, 0.04% Pluronic F127, 20 μM Methyl Oxonol, 30 μM CaCCinh-A01, 30 μM Chicago Sky Blue.
(§7) Chloride Free Dye Stimulation Solution consisted of Chloride Free Dye Solution, 10 μM forskolin, 100 μM IBMX, and 300 nM Compound III.
(§8) Human intestinal epithelial enteroid cells were obtained from the Hubrecht Institute for Developmental Biology and Stem Cell Research, Utrecht, The Netherlands and expanded in T-Flasks as previously described (Dekkers J F, Wiegerinck C L, de Jonge H R, Bronsveld I, Janssens H M, de Winter-de Groot K M, Brandsma A M, de Jong N W M, Bijvelds M J C, Scholte B J, Nieuwenhuis E E S, van den Brink S, Clevers H, van der Ent C K, Middendorp S and M Beekman J M. A functional CFTR assay using primary cystic fibrosis intestinal organoids. Nat Med. 2013 July; 19(7):939-45.).
(§9) Cells were recovered in cell recovery solution, collected by centrifugation at 650 rpm for 5 minutes at 4° C., resuspended in TrypLE and incubated for 5 minutes at 37° C. Cells were then collected by centrifugation at 650 rpm for 5 minutes at 4° C. and resuspended in IEMM containing 10 μM ROCK inhibitor (RI). The cell suspension was passed through a 40 μm cell strainer and resuspended at 1×10^6 cells/mL in IEMM containing 10 μM RI. Cells were seeded at 5000 cells/well into multi-well plates and incubated for overnight at 37° C., 95% humidity and 5% CO2 prior to assay.
(§10) Enteroid cells were incubated with test compound in IEMM for 18-24 hours at 37° C., 95% humidity, and 5% C02. […] Briefly, cells were washed 5 times in Bath 1 Buffer. Bath 1 Dye Solution was added and the cells were incubated for 25 minutes at room temperature. Following dye incubation, cells were washed 3 times in Chloride Free Dye Solution. Chloride transport was initiated by addition of Chloride Free Dye Stimulation Solution and the fluorescence signal was read for 15 minutes. […] Chloride transport was then expressed as a percentage of the chloride transport following treatment with 1 μM (14S)-8-[3-(2-{Dispiro[2.0.2.1]heptan-7-yl}ethoxy)-1H-pyrazol-1-yl]-12,12-dimethyl-2λ^6-thia-3,9,11,18,23-pentaazatetracyclo[17.3.1.111,14.05,10]tetracosa-1(22),5,7,9,19(23),20-hexaene-2,2,4-trione, 3 μM (R)-1-(2,2-difluorobenzo[d][1,3]dioxol-5-yl)-N-(1-(2,3-dihydroxypropyl)-6-fluoro-2-(1-hydroxy-2-methylpropan-2-yl)-1H-indol-5-yl)cyclopropanecarboxamide and 300 nM acute N-[2,4-bis(1,1-dimethylethyl)-5-hydroxyphenyl]-1,4-dihydro-4-oxoquinoline-3-carboxamide triple combination control (% Activity).

[2] = 13-membered ring
[3] = target: T1, CFTR-mediated chloride transport in human intestinal epithelial enteroid cells; assay: Membrane potential dye, Enteroid Assay A; assay type: cell-based; details: for Ent. A Max Activity: % of chloride transport of triple combination control: 3 μM (S)-N-((6-aminopyridin-2-yl)sulfonyl)-6-(3-fluoro-5-isobutoxyphenyl)-2-(2,2,4-trimethylpyrrolidin-1-yl)nicotinamide, 3 μM tezacaftor, 300 nM acute ivacaftor; for pEC50: enteroid cells, 18-24 hours incubation, acute 10 μM forskolin and 300 nM ivacaftor, read-out: Ent. A EC50
Protocol: as §1, §2, §3, §4, §5, §6, §7, §8, §9
as §10, with “95% humidity” for “95% humidity,”, “was added,” for “was added”, “with 3” for “with 1”, “μM (S)—N-((6-aminopyridin-2-yl)sulfonyl)-6-(3-fluoro-5-isobutoxyphenyl)-2-(2,2,4-trimethylpyrrolidin-1-yl)nicotinamide,” for “μM (14S)-8-[3-(2-{Dispiro[2.0.2.1]heptan-7-yl}ethoxy)-1H-pyrazol-1-yl]-12,12-dimethyl-2λ^6-thia-3,9,11,18,23-pentaazatetracyclo[17.3.1.111,14.05,10]tetracosa-1(22),5,7,9,19(23),20-hexaene-2,2,4-trione,”

SMILES: Cc1cccc(C)c1-c1cc2nc(n1)NS(=O)(=O)c1ccccc1C(=O)O[C@H](c1ccc(C(C)(C)C)cc1)[C@@H](C)N2 [Compound 27]
Ent. A Max Activity [3]: + (+ is <30%)

SMILES: Cc1cccc(C)c1-c1cc2nc(n1)NS(=O)(=O)c1cccc(c1)C(=O)OCC(CCC1(C(F)(F)F)CC1)N2CCC(C)C (centres unmarked) [Compound 30]
Ent. A Max Activity [3]: + (+ is <30%)

SMILES: Cc1cccc(C)c1-c1cc2nc(n1)NS(=O)(=O)c1cccc(c1)C(=O)OCC(C)(C)CN2 [Compound 34]
Ent. A Max Activity [3]: + (+ is <30%)

SMILES: Cc1cccc(C)c1-c1cc2nc(n1)NS(=O)(=O)c1cccc(c1)C(=O)O[C@@H](C)[C@@H](CC(C)C)N2 [Compound 36]
Ent. A Max Activity [3]: + (+ is <30%)

SMILES: Cc1cccc(C)c1-c1cc2nc(n1)NS(=O)(=O)c1cccc(c1)C(=O)NC(CC(C)C)CN2 (centres unmarked) [Compound 37, 6-(2,6-Dimethylphenyl)-11-isobutyl-2,2-dioxo-2 λ6-thia-3,5,9,12,19-pentazatricyclo[12.3.1.14,8]nonadeca-1(18),4(19),5,7,14,16-hexaen-13-one]
ring closure, yield after HPLC ([2]; from Cc1cccc(C)c1-c1cc(NCC(N)CC(C)C)nc(NS(=O)(=O)c2cccc(C(=O)O)c2)n1, amide bond, HATU/Et3N, DMF, 50.6 mM, 0.5 h): 67%
Ent. A Max Activity [3]: + (+ is <30%)

SMILES: Cc1cccc(C)c1-c1cc2nc(n1)NS(=O)(=O)c1cccc(c1)C(=O)N[C@H](C)CN2Cc1ccccc1 [Compound 38, (11R)-9-benzyl-6-(2,6-dimethylphenyl)-11-methyl-2,2-dioxo-2λ6-thia-3,5,9,12,19-pentazatricyclo[12.3.1.14,8]nonadeca-1(18),4(19),5,7,14,16-hexaen-13-one]
ring closure, yield after HPLC ([2]; from Cc1cccc(C)c1-c1cc(N(Cc2ccccc2)C[C@@H](C)N)nc(NS(=O)(=O)c2cccc(C(=O)O)c2)n1, amide bond, HATU/Et3N, DMF, 44.7 mM, 25.0 °C, 16.0 h): 23%
Ent. A Max Activity [3]: + (+ is <30%)

SMILES: Cc1cccc(C)c1-c1cc2nc(n1)NS(=O)(=O)c1cccc(c1)C(=O)NCCN2CC(C)C [Compound 39, 6-(2,6-Dimethylphenyl)-9-isobutyl-2,2-dioxo-2 λ6-thia-3,5,9,12,19-pentazatricyclo[12.3.1.14,8]nonadeca-1(18),4(19),5,7,14,16-hexaen-13-one]
ring closure, yield after HPLC ([2]; from Cc1cccc(C)c1-c1cc(N(CCN)CC(C)C)nc(NS(=O)(=O)c2cccc(C(=O)O)c2)n1, amide bond, HATU/Et3N, DMF, 25.3 mM, 25.0 °C, 0.5 h): 35%
Ent. A Max Activity [3]: + (+ is <30%)

Second part, led by results:

Ent. B Max Activity [1]: +++ (+++ is >60%)
pEC50 [1]: > 6.00
SMILES: Cc1cccc(C)c1-c1cc2nc(n1)NS(=O)(=O)c1cccc(c1)C(=O)N(C1CC3(CC3)C1)[C@H](CC(C)C)CC2 [Compound 6, (11S)-6-(2,6-Dimethylphenyl)-11-isobutyl-2,2-dioxo-12-spiro[2.3]hexan-5-yl-2 λ6-thia-3,5,12,19-tetrazatricyclo[12.3.1.14,8]nonadeca-1(18),4(19),5,7,14,16-hexaen-13-one]
ring closure, yield after HPLC ([2]; from Cc1cccc(C)c1-c1cc(CC[C@@H](CC(C)C)NC2CC3(CC3)C2)nc(NS(=O)(=O)c2cccc(C(=O)O)c2)n1, amide bond, HATU/DIEA, NMP, 126.6 mM, 25.0 °C, 2.0 h): 50%

Ent. B Max Activity [1]: +++ (+++ is >60%)
pEC50 [1]: > 6.00
SMILES: Cc1cccc(C)c1-c1cc2nc(n1)NS(=O)(=O)c1cccc(c1)C(=O)N(C1CC3(CC3)C1)[C@H](CC1(C(F)(F)F)CC1)CC2 [Compound 7, (11S)-6-(2,6-Dimethylphenyl)-2,2-dioxo-12-spiro[2.3]hexan-5-yl-11-[[1-(trifluoromethyl)cyclopropyl]methyl]-2 λ6-thia-3,5,12,19-tetrazatricyclo [12.3.1.14,8]nonadeca-1(18),4(19),5,7,14,16-hexaen-13-one]
ring closure, yield after HPLC ([2]; from Cc1cccc(C)c1-c1cc(CC[C@@H](CC2(C(F)(F)F)CC2)NC2CC3(CC3)C2)nc(NS(=O)(=O)c2cccc(C(=O)O)c2)n1, amide bond, HATU/DIEA, NMP, 26.8 mM, 25.0 °C, 16.0 h): 22%

Ent. B Max Activity [1]: +++ (+++ is >60%)
pEC50 [1]: 5.52 to 6.00
SMILES: Cc1cccc(C)c1-c1cc2nc(n1)NS(=O)(=O)c1cccc(c1)C(=O)N(C1CC3(CC3)C1)CCC2C (centres unmarked) [Compound 11, 6-(2,6-dimethylphenyl)-9-methyl-2,2-dioxo-12-spiro[2.3]hexan-5-yl-2λ^6-thia-3,5,12,19-tetrazatricyclo[12.3.1.14,8]nonadeca-1(18),4(19),5,7,14,16-hexaen-13-one]
ring closure, yield after HPLC ([2]; from Cc1cccc(C)c1-c1cc(C(C)CCNC2CC3(CC3)C2)nc(NS(=O)(=O)c2cccc(C(=O)O)c2)n1, amide bond, HATU/DIEA, NMP, 20.1 mM, 25.0 °C, 16.0 h): 86%

Ent. B Max Activity [1]: + (+ is <30%)
SMILES: Cc1cccc(C)c1-c1nc2nc(c1C)NCCOC(=O)c1cccc(c1)S(=O)(=O)N2 [Compound 24, 6-(2,6-dimethylphenyl)-7-methyl-12-oxa-2 λ6-thia-3,5,9,19-tetraazatricyclo[12.3.1.14,8]nonadeca-1(18),4,6,8(19),14,16-hexaene-2,2,13-trione]
ring closure, yield after HPLC ([2]; from Cc1cccc(C)c1-c1nc(NS(=O)(=O)c2cccc(C(=O)O)c2)nc(OCCN)c1C, ester bond, HATU/DIEA, DMF, 50.7 mM, 25.0 °C): 23%

pEC50 [3]: 5.52 to 6.00
SMILES: Cc1cccc(C)c1-c1cc2nc(n1)NS(=O)(=O)c1cccc(c1)C(=O)OCC(CCC1(C(F)(F)F)CC1)N2CCC1CCOCC1 (centres unmarked) [Compound 26, 6-(2,6-dimethylphenyl)-2,2-dioxo-9-(2-tetrahydropyran-4-ylethyl)-10-[2-[1-(trifluoromethyl)cyclopropyl]ethyl]-12-oxa-2λ6-thia-3,5,9,19-tetrazatricyclo[12.3.1.14,8]nonadeca-1(18),4(19),5,7,14,16-hexaen-13-one]
Ent. A Max Activity [3]: +++ (+++ is >60%)

pEC50 [3]: 5.52 to 6.00
SMILES: Cc1cccc(C)c1-c1cc2nc(n1)NS(=O)(=O)c1cccc(c1)C(=O)OCC[C@H](c1ccccc1)N2 [Compound 28]
Ent. A Max Activity [3]: ++ (++ is 30-60%)

pEC50 [3]: 5.52 to 6.00
SMILES: Cc1cccc(C)c1-c1cc2nc(n1)NS(=O)(=O)c1cccc(c1)C(=O)OCC(CCC1(C(F)(F)F)CC1)N2Cc1ccccc1 (centres unmarked) [Compound 31]
Ent. A Max Activity [3]: ++ (++ is 30-60%)

pEC50 [3]: 5.52 to 6.00
SMILES: Cc1cccc(C)c1-c1cc2nc(n1)NS(=O)(=O)c1cccc(c1)C(=O)OCC[C@@H](c1ccccc1)N2 [Compound 33]
Ent. A Max Activity [3]: +++ (+++ is >60%)

Reference: US12612416B2, “Modulators of cystic fibrosis transmembrane conductance regulator” (VERTEX PHARMACEUTICALS INCORPORATED, priority 2020, dated 2026)
